# How the values were obtained:
# [1] = Liver microsome stability test, human (HLM); type: in vitro ADME; settings: human liver microsomes, NADPH; read-out: T1/2 (min) Human
# Protocol: (§1) The 10 mM test compound/ketanserin (Energy Chemical, Cat. No. E020711) stock solution was diluted with acetonitrile to 0.5 mM compound/reference compound. The frozen 100 mM NADPH (MCE, Cat. No. HYF003/CS-4998) was diluted with phosphate buffer solution to a concentration of 6 mM; 20 mg/mL HLM (BioIVT, Cat. No. X008067) or MLM (BioIVT, Cat. No. M00501) was diluted with phosphate buffer solution to a concentration of 0.75 mg/ml, and added to a 96-round well plate, respectively, and shaken evenly on an oscillator at 600 rpm. The above oscillated samples were pipetted 3 times with an electric pipettor and dispensed into a new 96-well plate (containing NADPH group (n=2), NADPH-free group was added at 0 and 45 min (n=1)), and there were a total of 5 groups of 0, 5, 15, 30 and 45 min, respectively. After pre-incubation of the 5 groups of samples at 37° C. for 5 min, glacial acetonitrile was quickly added to the 0 min group for precipitation, and after rapid vortexing, K-Buffer or NADPH was added with an electric pipettor. The remaining groups were sequentially added with 6 mM NADPH to start the reaction in the order of 45, 30, 15 and 5 min samples, and K-Buffer solution was added to the NADPH-free group. After mixing at 1000 rpm in an oscillating mixer for 10 s, they were continuously incubated at 37° C. for the corresponding time. The reaction was terminated by quickly adding glacial acetonitrile internal standard using an electric pipettor; after vortexing at 900 rpm for 10 seconds, heat sealing was performed, oscillation was performed on an oscillator for 10 minutes, centrifugation was performed at 4000 rpm for 50 minutes, the supernatant was collected and diluted with pure water, and the test compound and the reference compound were quantified by LC-MS/MS analysis.
# [2] = Liver microsome stability test, mouse (MLM); type: in vitro ADME; settings: mouse liver microsomes, NADPH; read-out: T1/2 (min) Mouse
# Protocol: as §1
# [3] = Pharmacokinetic test in mice; type: in vivo; settings: male, ICR, mouse, plasma; for AUC / Cmax: 25 mg/kg, po 25 mpk; for clearance: 2.5 mg/kg, iv 2.5 mpk
# Protocol: ICR male mice (15 to 35 g, 5 to 10 weeks old, Shanghai Xipuer-Bikai Experimental Animal Co., Ltd.) were selected as test animals in this study. The LC-MS/MS method was used to quantitatively determine drug concentrations in the plasma of mice at different time points after intravenous injection or oral gavage administration of the test compound to evaluate the pharmacokinetic characteristics of the compound in mice. The clear solution of the test compound was injected into ICR mice via the tail vein (without fasting, solvent: 40% hydroxypropyl-β-cyclodextrin) and administered to ICR mice by oral gavage (fasting for 10 to 14 hours, free drinking water, solvent: 0.2% hydroxypropyl cellulose, 0.5% Tween 80). For intravenous administration, blood was collected from the submandibular venous plexus at 0.033, 0.083, 0.25, 0.5, 1, 2, 4, 8, and 24 hours after administration, placed in an anticoagulant tube with EDTA-K2 (Jiangsu Kangjian Medical Supplies Co., Ltd.), mixed, and centrifuged at 2-8° C., 6800 g for 6 minutes to obtain plasma; for oral gavage administration, blood was collected from the submandibular venous plexus at 0.083, 0.25, 0.5, 1, 2, 4, 6, 8, and 24 hours after administration, placed in an anticoagulant tube with EDTA-K2 (Jiangsu Kangjian Medical Supplies Co., Ltd.), mixed, and centrifuged at 2-8° C., 6800 g for 6 minutes to obtain plasma. The blood drug concentration was determined by LC-MS/MS, and the relevant pharmacokinetic parameters were calculated by the non-compartmental linear logarithmic trapezoidal method using Phoenix WinNonlin™ Version 7.0 (Pharsight, USA) pharmacokinetic software.
# [4] = Caco-2 cell permeability test; type: in vitro ADME; settings: human, pH 7.4, Caco-2, 10 μM; for Papp A→B at 120 min, 10 μM: A to B; for Papp B→A at 120 min, 10 μM: B to A
# Protocol: Caco-2 cells (ATCC, Cat. No. HTB-37) were inoculated to a 96-well plate (Corning HTS Transwell, Cat. No. 3391) at 1.25×10^5/cm2, and the culture medium (DMEM+10% FBS+1% Penicillin-Streptomycin Liquid (100×)+1% NEAA) was replaced every 3 to 4 days. The plate was placed in an incubator at 37° C. with 5% CO2 until a confluent cell monolayer was formed after 21 to 28 days. Before the transport experiment, the culture medium was removed from the cell culture plate, and the plate was washed twice with pre-warmed HBSS buffer (10 mM HEPES, pH 7.4), and 100 μL of HBSS buffer was added to each well. After incubation at 37° C. for 30 minutes, the TEER value was measured using a cell resistance meter (Millicell-ERS2) to confirm the integrity and density of the monolayer cells. The HBSS buffer was discarded, the upper plate containing the cell monolayer membrane was transferred to the corresponding receiving plate, 10 mM test compound stock solution was diluted to a concentration of 10 μM with HBSS transport buffer containing 0.5% BSA, and it was added to the apical side (A side) and basolateral side (B side), respectively. Incubation was carried out for 120 min at 37° C., 5% CO2, and 95% relative humidity, and the permeation of the test compound from A side to B side or from B side to A side and the efflux rate of the compound were determined. The test compound and the reference compound were quantified by LC-MS/MS analysis based on the peak area ratio of analyte/internal standard. The apparent permeability coefficient Papp (cm/s) was calculated using the following formula:
# [formula] • wherein, dCr/dt represented the functional relation between cumulative concentration of compound in receptor compartment and time; V represented the volume of solution in receptor compartment (0.1 mL at apical side, and 0.25 mL at basolateral side); A represented the transport surface area, i.e., the monolayer cell area was 0.0804 cm^2; CO represented the initial concentration of compound in donor compartment.
# The efflux ratio was calculated using the following formula: […]
# The percent recovery was calculated using the following formula:
# [formula] [formula] • wherein, Vd represented the volume of donor compartment (0.1 mL on the apical side and 0.25 mL on the basolateral side); C and Cr represented the final concentrations of the transported compound in the donor and receptor compartment, respectively; Cc represented the compound concentration in cell lysate; Vc represented the volume of insert well (which was 0.1 mL in this experiment).
SMILES,half-life [1] [min],half-life [2] [min],AUC [3] [ng·h/mL],Cmax [3] [ng/mL],clearance [3] [mL/min/kg],"efflux ratio at 120 min, 10 μM [4]","Papp A→B at 120 min, 10 μM [4] [×10⁻⁶ cm/s]","Papp B→A at 120 min, 10 μM [4] [×10⁻⁶ cm/s]"
"[2H]C([2H])([2H])NC(=O)c1ccc(NCC#Cc2cc3c(NC4CCC(N5CC6(COC6)C5)CC4F)cccn3c2CC(F)(F)F)c(OC([2H])([2H])[2H])c1 (single isomer, unassigned) [Compound 74d]",55.8,22,17400,4160,17,,,
"CNC(=O)c1ccc(NCC#Cc2nc3c(NC4CCC(N5CC6(COC6)C5)CC4F)cccn3c2CC(F)(F)F)c(OC)c1 (single isomer, unassigned) [Compound 35-6i]",,19.2,19700,6860,20,4.31,2.66,11.4
CNC(=O)c1ccc(NCC#Cc2nc3c(N[C@@H]4CCN(C)C[C@@H]4F)cccn3c2CC(F)(F)F)c(OC)c1 [Compound 5],,,4070,1140,54,8.27,2.8,23.1
COc1cc(C(=O)NC2CC2)ccc1NCC#Cc1nc2c(NC3CC[C@@H](N4CC5(COC5)C4)C[C@@H]3F)cccn2c1CC(F)(F)F (stereo partly drawn) [Compound 54],32,78.4,,,,2.24,2.3,5.16
[2H]C([2H])([2H])NC(=O)c1ccc(NCC#Cc2nc3c(NC4CC[C@@H](N5CC6(COC6)C5)C[C@@H]4F)cccn3c2CC(F)(F)F)c(OC([2H])([2H])[2H])c1 (stereo partly drawn) [Compound 64],44,55,,,,1.22,4.92,5.99
CNC(=O)c1ccc(NCC#Cc2nc3c(NC4CC[C@@H](N5CC6(COC6)C5)C[C@@H]4F)cccn3c2CC(F)(F)F)c(OCF)c1 (stereo partly drawn) [Compound 58],37.5,33,,,,3.09,2.41,7.46
